Literature values, collected in patent publication US8951557B2, “Sustained release solid formulations and methods of manufacturing the same” (Hana Pharm. Co. Ltd., priority 2008, dated 2015).

How the values were obtained:
[1] = 5 mg rapid release tablet administered
[2] = administered orally, compared to direct administration into bloodstream

COc1ccc2c3c1O[C@H]1C(=O)CC[C@@]4(O)[C@@H](C2)N(C)CC[C@]314.Cl [Oxycodone hydrochloride]
time the analgesic effect sustains [1]: 4 to 6 h
bioavailability [2]: 60-87%
